Data published in patent publication US20220313782A1, “METHODS AND COMPOSITIONS INVOLVING TERT ACTIVATING THERAPIES” (BOARD OF REGENTS, THE UNIVERSITY OF TEXAS SYSTEM, priority 2019, published 2022).

Assays:
[1] = system: Tert gene expression; experiment: Tert mRNA levels in cortex and hippocampus of AD mice treated with histone methyltransferase inhibitors; type: in vivo, mouse; conditions: cortex and hippocampus of AD mice (5xFAD), FIG. 1I
Source text: Tert mRNA levels in the cortex of 3xTg-AD and wildtype control (B6129SF2/J) mice (n=4; 3-month-old). (B) Tert mRNA levels in the hippocampus of 5xFAD and wildtype littermate control mice (n=4; 2˜3-month-old). (C) Tert mRNA levels in primary cortical and hippocampal neurons isolated from 3xTg-AD and control mice at DIV 14 (n=3). (D) Tert mRNA levels in primary cortical and hippocampal neurons isolated from 5xFAD and control mice at DIV 14 (n=3). (E) Telomerase activity in hippocampal neurons isolated from 5xFAD and control mice (n=4; 2˜3-month-old). (F) Representative view of H3K9me3 repressive histone mark occupancy in Tert gene of 5xFAD and control mouse primary neurons at DIV 14. […]
Focusing in particular on the neuronal population, the inventors isolated and cultured primary cortical and hippocampal neurons from E18.5-E19.5 AD mouse brains, and Tert mRNA levels were examined at 14 Days in vitro (DIV), by which time the synaptic network is mature. […] To investigate whether reversible H3K9 methylation is involved in the repression of Tert, the inventors assessed the impact of histone methyltransferase inhibitors chaetocin and BIX-01294, the non-selective cofactor-competitive inhibitor and the selective substrate-competitive inhibitor, respectively, in the AD mouse model (Greiner et al., Nat Chem Biol, 2005; Kubicek et al., Mol Cell, 2007; Yuan et al., ACS Chem Biol, 2012). […]

[2] = system: H3K9 methylation marks; conditions: peripheral administration; cited from earlier work

SMILES: COc1cc2nc(N3CCCN(C)CC3)nc(NC3CCN(Cc4ccccc4)CC3)c2cc1OC [BIX-01294]
- Tert gene expression (Tert mRNA levels) [1]: de-repression of Tert gene expression
- H3K9 methylation marks in the central nervous system [2]: reduce H3K9 methylation marks
